Test results published in US20250243194A1, “ANTAGONIST OF ADENOSINE RECEPTORS” (AdoRx Therapeutics Limited, priority 2022, published 2025).

Experiments:
[1] = molecular target: human Adenosine A2a receptor (Homo sapiens (Human), UniProt P29274); test: Adenosine receptor TR-FRET binding assay (A2a); conditions: inhibition of binding of 100 nM CA200645; CHO cell membranes; Ki from IC50 by Cheng and Prusoff
Procedure: (§1) All FRET binding experiments were conducted at room temperature in white 384-well plates, in assay binding buffer containing 1× LabMed (Cisbio, France), 100 μg/mL saponin, 1% DMSO and 0.02% pluronic acid. Binding of the fluorescently labelled Adenosine receptor antagonist XAC (CA200645, FRET acceptor) to terbium-labelled A1, A2a, A2b and A3 adenosine receptors (FRET donors) was detected by time-resolved FRET due to the close proximity of the donor and acceptor in a binding event. To investigate the ability of unlabelled test compounds to bind to Adenosine A1, A2a, A2b and A3 receptors, dose response curves were constructed that determined the ability of a range of concentrations to inhibit the binding of 30 nM CA200645 to the A2b receptor and 100 nM CA200645 to the A1, A2a, and A3 receptor.
(§2) Serial dilution (1:3 dilutions) of test compounds in neat DMSO and transfer of a 400 nL sample of test compound into the assay plate was carried out using the Mosquito (TTP Labtech, UK). The compound samples were incubated for 2 hours at room temperature with a fixed concentration of CA200645 defined for each receptor (see above) and CHO cell membranes containing the human Adenosine A1 (0.5 μg/well), A2a (0.3 μg/well), A2b (1 μg/well) or A3 (1 μg/well) receptor in 40 μL of assay buffer. Total and non-specific binding of CA200645 was determined in the absence and presence of 10 μM XAC, respectively. Following 2 hours incubation, the level of CA200645 binding was detected on a Pherastar FSX (BMG Labtech, Germany) using standard TR-FRET settings. The terbium donor was excited with three laser flashes at a wavelength of 337 nm, and donor and acceptor emission was detected at 620 nm and 665 nm wavelengths, respectively. FRET ratios were obtained by multiplying the acceptor/donor ratio value by 10,000. Specific binding was determined by subtracting the non-specific binding FRET ratio from the total binding FRET ratio. Compound IC50 curves were analysed using GraphPad Prism 7.0 (GraphPad, USA) and Ki affinity values were determined from the obtained IC50 values using the method of Cheng and Prusoff.

human PBMCs = test: CD3/CD28 stimulated IL-2 release NECA reversal assay in human PBMCs; format: cell-based; conditions: PBMC, reversal of 1 uM NECA, 24 hours
Procedure: Blood is drawn from healthy volunteers using sodium citrate as the anticoagulant (0.3% final concentration). After centrifugation of the blood over Histopaque-1077, PBMCs are collected from the Histopaque/plasma interface and washed twice in PBS (300 g for 10 mins at room temp). Cells are plated at 50,000 cells/well in 150 μl RPMI/10% FCS in 96-well cell culture plates that have been precoated with 1 μg/ml CD3 antibody. 50 μl diluted compound mix is added to the cells, to obtain final concentrations of 1 μg/ml CD28 antibody, 1 uM NECA and 0.003-10 μM adenosine receptor antagonist. Assay plates are incubated for 24 hours at 37° C. in a humidified incubator. Culture supernatant is tested for IL-2 levels using the human IL-2 Tissue Culture Kit (Meso Scale Discovery).

[2] = test system: immature monocyte-derived dendritic cells (MoDC); test: MoDC pCREB assay; format: cell-based; conditions: Homo sapiens, Dendritic cell, CD209+/CD86-low cells, 1 μM NECA, 20 μM rolipram, largely specific to A2B
Procedure: Monocytes are isolated from human whole blood using CD14 microbeads (Miltenyi Biotec 130-050-201) and differentiated to immature monocyte-derived dendritic cells (MoDC) by culture for 5 days in Mo-DC Differentiation Medium (Miltenyi Biotec 130-094-812). MoDCs are seeded into fresh medium into U bottomed 96 well culture plates and pre-incubated at 37° C. with serial dilutions of A2A/B antagonists for 15 min. At the same time the cells are co-incubated with the phosphodiesterase inhibitor rolipram (final concentration of 20 μM) to amplify the subsequent pCREB response. Adenosine receptor agonist NECA is then added at 1 μM final concentration, leading to an increase in CREB phosphorylation. Following a 45 min incubation at 37° C., the cells are fixed, permeabilized and stained with directly conjugated fluorescent antibodies to phospho-CREB (Alexa Fluor 488), CD209 (PerCP-Cy5.5) and CD86 (APC). Samples are analysed by FACS to measure fluorescence in corresponding channels, and also forward and Side scatter. The population of CD209+/CD86-low cells corresponding to immature dendritic cells is gated for analysis of pCREB levels.
Approximately 5% of the analysed cells are positive for detection of pCREB in the absence of agonist stimulation, representing the background signalling of all pathways upstream of CREB. Following NECA stimulation this is increased to ˜80% pCREB+ve, and this increase is essentially fully reversible by A2B or dual A2A/B antagonists.
IC50 is represented as the point of inflection of a sigmoidal curve

[3] = molecular target: human Adenosine A1 receptor (Homo sapiens (Human), UniProt P30542); test: Adenosine receptor TR-FRET binding assay (A1); conditions: inhibition of binding of 100 nM CA200645; CHO cell membranes; Ki from IC50 by Cheng and Prusoff
Chain of human Adenosine A1 receptor (P30542 whole entry): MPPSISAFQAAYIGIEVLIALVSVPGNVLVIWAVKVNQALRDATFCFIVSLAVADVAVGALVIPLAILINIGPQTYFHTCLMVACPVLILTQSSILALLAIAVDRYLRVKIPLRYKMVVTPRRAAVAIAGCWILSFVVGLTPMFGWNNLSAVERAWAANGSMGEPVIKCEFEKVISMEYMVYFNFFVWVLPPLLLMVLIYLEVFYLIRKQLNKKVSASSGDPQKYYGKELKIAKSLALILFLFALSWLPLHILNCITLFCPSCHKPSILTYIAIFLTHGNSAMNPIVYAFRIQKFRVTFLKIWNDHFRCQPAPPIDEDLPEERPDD
Procedure: as §1, §2

[4] = test system: CD8+ T cells in human whole blood; test: Measurement of pCREB in CD8+ T cells in human whole blood; format: cell-based; conditions: T-cell, 3 μM NECA, rolipram, FACS
Procedure: Heparinised human whole blood was pre-incubated at 37° C. with serial dilutions of A2a antagonists for 20 min. and the phosphodiesterase inhibitor rolipram to amplify the pCREB response. The adenosine receptor agonist NECA is then added at a final concentration of 3 μM and following a 60 min incubation the blood is fixed and red blood cells lysed. White blood cells are isolated, permeabilized and stained with directly conjugated fluorescent antibodies to phospho-CREB (Alexa Fluor 488) and CD8 (Alexa Fluor 647) and the level of phospho-CREB in CD8+ T cells is measured by FACS using a BD Accuri C6 Flow Cytometer.

[5] = molecular target: human Adenosine A2b receptor (Homo sapiens (Human), UniProt P29275); test: Adenosine receptor TR-FRET binding assay (A2b); conditions: inhibition of binding of 30 nM CA200645; CHO cell membranes; Ki from IC50 by Cheng and Prusoff
Chain of human Adenosine A2b receptor (P29275 whole entry): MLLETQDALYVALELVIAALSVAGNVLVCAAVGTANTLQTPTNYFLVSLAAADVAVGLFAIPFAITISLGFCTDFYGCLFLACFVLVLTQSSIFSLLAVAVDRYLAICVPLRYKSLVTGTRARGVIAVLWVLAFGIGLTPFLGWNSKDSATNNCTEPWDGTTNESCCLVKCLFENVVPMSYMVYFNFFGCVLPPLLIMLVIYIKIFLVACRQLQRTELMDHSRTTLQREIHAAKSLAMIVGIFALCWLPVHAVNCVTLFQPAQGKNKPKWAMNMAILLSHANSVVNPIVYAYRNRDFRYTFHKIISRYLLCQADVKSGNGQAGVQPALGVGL
Procedure: as §1, §2

[6] = molecular target: human Adenosine A3 receptor (Homo sapiens (Human), UniProt P0DMS8); test: Adenosine receptor TR-FRET binding assay (A3); conditions: inhibition of binding of 100 nM CA200645; CHO cell membranes; Ki from IC50 by Cheng and Prusoff
Chain of human Adenosine A3 receptor (P0DMS8 whole entry): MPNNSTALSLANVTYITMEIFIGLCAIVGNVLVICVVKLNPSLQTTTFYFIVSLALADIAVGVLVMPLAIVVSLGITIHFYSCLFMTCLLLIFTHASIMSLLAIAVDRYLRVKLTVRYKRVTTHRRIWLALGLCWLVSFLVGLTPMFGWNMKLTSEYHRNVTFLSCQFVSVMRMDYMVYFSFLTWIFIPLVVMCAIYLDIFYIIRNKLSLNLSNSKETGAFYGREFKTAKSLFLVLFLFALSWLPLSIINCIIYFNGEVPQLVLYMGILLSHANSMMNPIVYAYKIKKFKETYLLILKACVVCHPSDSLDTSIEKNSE
Procedure: as §1, §2

Chain of human Adenosine A2a receptor (P29274 whole entry): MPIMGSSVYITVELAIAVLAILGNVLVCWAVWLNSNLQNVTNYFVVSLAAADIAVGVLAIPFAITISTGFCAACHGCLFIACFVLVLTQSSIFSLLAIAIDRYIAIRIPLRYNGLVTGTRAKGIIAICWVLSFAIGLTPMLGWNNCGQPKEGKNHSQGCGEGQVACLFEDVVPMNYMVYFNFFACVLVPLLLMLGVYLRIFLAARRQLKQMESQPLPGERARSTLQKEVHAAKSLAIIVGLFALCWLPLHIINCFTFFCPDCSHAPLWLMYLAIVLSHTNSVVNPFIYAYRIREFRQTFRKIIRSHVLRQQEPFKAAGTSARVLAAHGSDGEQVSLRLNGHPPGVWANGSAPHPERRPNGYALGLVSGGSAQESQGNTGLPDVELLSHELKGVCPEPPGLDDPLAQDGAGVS

SMILES	Ki [1] [nM]	IC50 (human PBMCs) [nM]	IC50 [2] [nM]	Ki [3] [nM]	IC50 [4] [nM]	Ki [5] [nM]	Ki [6] [nM]
Cc1ncnc2ccc(-c3sc(NC(=O)N4CC5(CN(C)C5)C4)nc3-c3cccc(C#N)c3)cc12 [Example 7.4, N-[4-(3-Cyanophenyl)-5-(4-methylquinazolin-6-yl)thiazol-2-yl]-6-methyl-2,6-diazaspiro[3.3]heptane-2-carboxamide]	1.83	3	4	345	60	6.4	–
Cc1ncnc2ccc(-c3sc(NC(=O)N4CC[C@@H](C(C)(C)O)C4)nc3-c3cccc(C#N)c3)cc12 [Example 7, (3R)—N-[4-(3-Cyanophenyl)-5-(4-methylquinazolin-6-yl)thiazol-2-yl]-3-(1-hydroxy-1-methyl-ethyl)pyrrolidine-1-carboxamide]	0.1	0.3	3	–	10	1.4	–
Cc1ncnc2ccc(-c3sc(NC(=O)N4CC5(C4)CC(C)(O)C5)nc3-c3cccc(C#N)c3)cc12 [Example 7.24, N-[4-(3-Cyanophenyl)-5-(4-methylquinazolin-6-yl)thiazol-2-yl]-6-hydroxy-6-methyl-2-azaspiro[3.3]heptane-2-carboxamide]	0.14	0.7	2	18	12	1.3	–
Cc1ncnc2ccc(-c3sc(NC(=O)N4CCC5(CC4)COCCN5)nc3-c3cccc(C#N)c3)cc12 [Example 2, N-[4-(3-Cyanophenyl)-5-(4-methylquinazolin-6-yl)thiazol-2-yl]-4-oxa-1,9-diazaspiro[5.5]undecane-9-carboxamide]	0.32	–	3	70	20	2.8	–
Cc1ncnc2ccc(-c3sc(NC(=O)N4CC[C@H](C(C)(C)O)C4)nc3-c3cccc(C#N)c3)cc12 [Example 5, (3S)—N-[4-(3-Cyanophenyl)-5-(4-methylquinazolin-6-yl)thiazol-2-yl]-3-(1-hydroxy-1-methyl-ethyl)pyrrolidine-1-carboxamide]	0.17	0.4	3	–	15	1.7	–
N#Cc1cccc(-c2nc(NC(=O)N3CCOCC3)sc2-c2ccn3nccc3c2)c1 [Example 33, N-[4-(3-Cyanophenyl)-5-pyrazolo[1,5-a]pyridin-5-yl-thiazol-2-yl]morpholine-4-carboxamide]	0.36	6.4	–	0.2	219	0.5	758
Cc1ncnc2ccc(-c3sc(NC(=O)N4CCC(N5CCNCC5)CC4)nc3-c3cccc(C#N)c3)cc12 [Example 3, N-[4-(3-Cyanophenyl)-5-(4-methylquinazolin-6-yl)thiazol-2-yl]-4-piperazin-1-yl-piperidine-1-carboxamide]	2.26	–	6	554	70	7.7	–
Cc1cc(-c2sc(NC(=O)N3CC4(COC4)C3)nc2-c2cccc(C#N)c2)cnc1-n1nccn1 [Example 32, N-[4-(3-Cyanophenyl)-5-[5-methyl-6-(triazol-2-yl)-3-pyridyl]thiazol-2-yl]-2-oxa-6-azaspiro[3.3]heptane-6-carboxamide]	8.87	–	–	272	–	136	103
Cc1cc(-c2sc(NC(=O)N3CC4(COC4)C3)nc2-c2cccc(C#N)c2)cc2cn[nH]c12 [Example 27, N-[4-(3-Cyanophenyl)-5-(7-methyl-1H-indazol-5-yl)thiazol-2-yl]-2-oxa-6-azaspiro[3.3]heptane-6-carboxamide]	0.08	–	–	0.5	–	2.9	907
N#Cc1cccc(-c2nc(NC(=O)N3CC4(COC4)C3)sc2-c2ccc3ncoc3c2)c1 [Example 35, N-[5-(1,3-benzoxazol-6-yl)-4-(3-cyanophenyl)thiazol-2-yl]-2-oxa-6-azaspiro[3.3]heptane-6-carboxamide]	1.4	–	–	1.6	–	1.6	130
Cc1cc(-c2sc(NC(=O)N3CC4(COC4)C3)nc2-c2cccc(C#N)c2)c2cc[nH]c2n1 [Example 34, N-[4-(3-Cyanophenyl)-5-(6-methyl-1H-pyrrolo[2,3-b]pyridin-4-yl)thiazol-2-yl]-2-oxa-6-azaspiro[3.3]heptane-6-carboxamide]	7.4	–	–	290	–	7.6	260
Cc1cc(-c2sc(NC(=O)N3CC4(COC4)C3)nc2-c2cccc(C#N)c2)cn2c(C)cnc12 [Example 18, N-[4-(3-Cyanophenyl)-5-(3,8-dimethylimidazo[1,2-a]pyridin-6-yl)thiazol-2-yl]-2-oxa-6-azaspiro[3.3]heptane-6-carboxamide]	0.11	–	–	1	–	0.9	2630
Cc1cc(-c2sc(NC(=O)N3CC4(COC4)C3)nc2-c2cccc(C#N)c2)cc2[nH]nnc12 [Example 2.3, N-[4-(3-Cyanophenyl)-5-(7-methyl-3H-benzotriazol-5-yl)thiazol-2-yl]-2-oxa-6-azaspiro[3.3]heptane-6-carboxamide]	1.37	–	–	1	–	1.7	466
Cc1cc(-c2sc(NC(=O)N3CC4(COC4)C3)nc2-c2cccc(C#N)c2)c2cn[nH]c2n1 [Example 2.5, N-[4-(3-Cyanophenyl)-5-(6-methyl-1H-pyrazolo[3,4-b]pyridin-4-yl)thiazol-2-yl]-2-oxa-6-azaspiro[3.3]heptane-6-carboxamide]	3.3	–	–	14	–	0.9	2600
Cc1cc(-c2sc(NC(=O)N3CC4(COC4)C3)nc2-c2cccc(C#N)c2)cc2[nH]ncc12 [Example 2.2, N-[4-(3-Cyanophenyl)-5-(4-methyl-1H-indazol-6-yl)thiazol-2-yl]-2-oxa-6-azaspiro[3.3]heptane-6-carboxamide]	2.69	–	–	2	–	3.3	820
